From ChEMBL document CHEMBL4138234, “Aegeline inspired synthesis of novel amino alcohol and thiazolidinedione hybrids with antiadipogenic activity in 3T3-L1 cells” (Eur J Med Chem, 2018)
Active and inactive are the calls of the source. The calls are words filed in the database; no cut-off is given here.

Experiments:
3T3-L1 [1] = assay: Cytotoxicity against mouse 3T3L1 cells; assay type: cell-based
3T3-L1 [2] = assay: Anti-adipogenic activity in mouse 3T3L1 cells assessed as reduction in lipid accumulation at 20 uM incubated for 2 to 4 days by Oil Red O staining based microscopic method; assay type: functional, cell-based
Mus musculus [3] = organism: Mus musculus; assay: Inhibition of PPARgamma/CEBPalpha-mediated increase in aP2 protein expression in mouse 3T3L1 preadipocytes at 20 uM up to 6 days by Western blot analysis; assay type: cell-based
3T3-L1 [4] = assay: Cell cycle arrest in mouse 3T3L1 cells assessed as accumulation at S phase at 10 uM after 24 hrs by propidium iodide-staining based flow cytometry (reference value: 22%); assay type: functional
[5] = biological target: T1, Peroxisome proliferator-activated receptor gamma (Mus musculus) (UniProt P37238); assay: Inhibition of PPARgamma mRNA levels in mouse 3T3L1 preadipocytes at 20 uM after 6 days by RT-PCR analysis; assay type: cell-based
T1 sequence (whole entry): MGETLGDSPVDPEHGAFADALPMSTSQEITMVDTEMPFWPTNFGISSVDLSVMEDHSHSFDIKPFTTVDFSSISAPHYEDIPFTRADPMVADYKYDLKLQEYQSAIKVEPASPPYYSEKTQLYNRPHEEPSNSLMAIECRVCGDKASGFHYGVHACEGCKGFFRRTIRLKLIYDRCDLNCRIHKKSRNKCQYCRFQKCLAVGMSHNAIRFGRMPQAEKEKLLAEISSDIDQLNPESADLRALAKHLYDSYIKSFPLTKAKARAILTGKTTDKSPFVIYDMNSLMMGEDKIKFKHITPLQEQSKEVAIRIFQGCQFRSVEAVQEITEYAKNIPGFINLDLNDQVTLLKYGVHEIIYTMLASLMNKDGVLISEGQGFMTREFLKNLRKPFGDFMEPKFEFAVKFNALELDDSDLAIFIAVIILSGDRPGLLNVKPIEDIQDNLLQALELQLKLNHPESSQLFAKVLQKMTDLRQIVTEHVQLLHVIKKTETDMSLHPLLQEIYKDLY

3T3-L1 [6] = assay: Anti-adipogenic activity in mouse 3T3L1 preadipocytes in differentiation medium assessed as reduction in lipid accumulation at 20 uM by Oil Red O absorbance assay relative to control; assay type: functional; set-up: scale not given: the % may be the effect or the level left
3T3-L1 [7] = assay: Anti-adipogenic activity in mouse 3T3L1 cells assessed as reduction in lipid accumulation at 20 uM incubated for 2 to 6 days by Oil Red O staining based microscopic method; assay type: functional, cell-based
3T3-L1 [8] = assay: Anti-adipogenic activity in mouse 3T3L1 cells assessed as reduction in lipid accumulation at 20 uM incubated for 4 to 6 days by Oil Red O staining based microscopic method; assay type: functional, cell-based
[9] = biological target: CCAAT/enhancer-binding protein alpha (Mus musculus) (UniProt P53566); assay: Inhibition of C/EBPalpha protein expression in mouse 3T3L1 preadipocytes at 20 uM up to 6 days by Western blot analysis; assay type: cell-based
Sequence of CCAAT/enhancer-binding protein alpha (Mus musculus) (P53566 whole entry): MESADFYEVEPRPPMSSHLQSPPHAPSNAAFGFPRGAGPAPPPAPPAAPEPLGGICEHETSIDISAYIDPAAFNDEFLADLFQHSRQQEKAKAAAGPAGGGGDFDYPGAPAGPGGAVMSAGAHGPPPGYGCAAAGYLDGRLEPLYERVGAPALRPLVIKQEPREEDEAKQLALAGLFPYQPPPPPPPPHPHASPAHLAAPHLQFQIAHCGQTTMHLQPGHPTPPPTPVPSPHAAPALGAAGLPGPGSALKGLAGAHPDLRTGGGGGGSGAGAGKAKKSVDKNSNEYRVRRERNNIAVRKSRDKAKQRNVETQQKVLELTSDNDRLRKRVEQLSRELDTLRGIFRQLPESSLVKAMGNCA

[10] = biological target: T1, Peroxisome proliferator-activated receptor gamma (Mus musculus); assay: Inhibition of PPARgamma protein expression in mouse 3T3L1 preadipocytes at 20 uM up to 6 days by Western blot analysis; assay type: cell-based
[11] = biological target: CCAAT/enhancer-binding protein alpha (Mus musculus) (UniProt P53566); assay: Inhibition of C/EBPalpha mRNA levels in mouse 3T3L1 preadipocytes at 20 uM after 6 days by RT-PCR analysis; assay type: cell-based
3T3-L1 [12] = assay: Anti-adipogenic activity in mouse 3T3L1 preadipocytes assessed as reduction in MDI induced-lipid accumulation at 10 uM after 20 mins by Oil Red O staining-based assay; assay type: functional, cell-based
3T3-L1 [13] = assay: Anti-adipogenic activity in mouse 3T3L1 preadipocytes assessed as reduction in lipid accumulation at 20 uM by Oil Red O absorbance assay; assay type: functional, cell-based
3T3-L1 [14] = assay: Anti-adipogenic activity in mouse 3T3L1 preadipocytes in differentiation media assessed as reduction in lipid accumulation by Oil Red O staining microscopic method; assay type: functional, cell-based
Mus musculus [15] = organism: Mus musculus; assay: Inhibition of PPARgamma/CEBPalpha-mediated increase in FAS protein expression in mouse 3T3L1 preadipocytes at 20 uM up to 6 days by Western blot analysis; assay type: cell-based
Mus musculus [16] = organism: Mus musculus; assay: Inhibition of PPARgamma/CEBPalpha-mediated increase in aP2 mRNA levels in mouse 3T3L1 preadipocytes at 20 uM after 6 days by RT-PCR analysis; assay type: cell-based
3T3-L1 [17] = assay: Anti-adipogenic activity in mouse 3T3L1 cells assessed as reduction in lipid accumulation at 20 uM incubated up to 6 days by Oil Red O absorbance assay; assay type: functional, cell-based
3T3-L1 [18] = assay: Anti-adipogenic activity in mouse 3T3L1 cells assessed as reduction in lipid accumulation at 20 uM incubated for 4 to 6 days by Oil Red O absorbance method; assay type: functional, cell-based
Mus musculus [19] = organism: Mus musculus; assay: Inhibition of PPARgamma/CEBPalpha-mediated increase in FAS mRNA levels in mouse 3T3L1 preadipocytes at 20 uM after 6 days by RT-PCR analysis; assay type: cell-based
3T3-L1 [20] = assay: Cell cycle arrest in mouse 3T3L1 cells assessed as accumulation at S phase at 10 to 20 uM after 16 hrs by propidium iodide-staining based flow cytometry; assay type: functional
3T3-L1 [21] = assay: Cell cycle arrest in mouse 3T3L1 cells assessed as accumulation at S phase at 20 uM after 24 hrs by propidium iodide-staining based flow cytometry (reference value: 22%); assay type: functional
3T3-L1 [22] = assay: Anti-adipogenic activity in mouse 3T3L1 cells assessed as reduction in lipid accumulation at 20 uM incubated for 2 to 6 days by Oil Red O absorbance method; assay type: functional, cell-based
3T3-L1 [23] = assay: Anti-adipogenic activity in mouse 3T3L1 cells assessed as reduction in lipid accumulation at 20 uM incubated for 2 to 4 days by Oil Red O absorbance method; assay type: functional, cell-based
3T3-L1 [24] = assay: Anti-adipogenic activity in mouse 3T3L1 cells assessed as reduction in lipid accumulation at 20 uM incubated up to 6 days by Oil Red O staining based microscopic method; assay type: functional, cell-based

With `O=C1S/C(=C\c2ccc(OCC(O)CNCc3ccccn3)cc2)C(=O)N1Cc1ccc(F)cc1` (centres undefined) the Activity (3T3-L1 [1]) was “Toxic”.

With `O=C1S/C(=C\c2ccc(OCC(O)CNCc3ccccn3)cc2)C(=O)N1Cc1ccccc1` (centres undefined) the Activity (3T3-L1 [2]) was “Active”, the inhibition (Mus musculus [3]) was “Active” and the Activity (3T3-L1 [4]) was 37%. The inhibition [5] was “Active”, the Activity (3T3-L1 [6]) was >50% and the Activity (3T3-L1 [7]) was “Active”. The Activity (3T3-L1 [8]) was “Active”, the inhibition [9] was “Active” and the inhibition [10] was “Active”. For the same compound, the inhibition [11] was “Active”, the Activity (3T3-L1 [12]) was “Active” and the Activity (3T3-L1 [13]) was “Active”. The Activity (3T3-L1 [14]) was “Dose-dependent effect”, the inhibition (Mus musculus [15]) was “Active” and the inhibition (Mus musculus [16]) was “Active”. The Activity (3T3-L1 [17]) was “Active”, the Activity (3T3-L1 [18]) was “Active” and the inhibition (Mus musculus [19]) was “Active”. The Activity (3T3-L1 [20]) was “inactive”, the Activity (3T3-L1 [21]) was 36% and the Activity (3T3-L1 [22]) was “Active”. For the same compound, the Activity (3T3-L1 [23]) was “Active” and the Activity (3T3-L1 [24]) was “Active”.

`O=C1S/C(=C\c2ccc(OCC(O)CNCc3ccccn3)cc2)C(=O)N1Cc1ccccc1Br` (centres undefined) was tested, and the Activity (3T3-L1 [13]) was “Active”.

In the case of `O=C1S/C(=C\c2ccc(OCC(O)CNCc3cccnc3)cc2)C(=O)N1Cc1ccccc1` (centres undefined), the Activity (3T3-L1 [13]) is reported as “inactive”.

For `O=C1S/C(=C\c2ccc(OCC(O)CNCc3cccnc3)cc2)C(=O)N1Cc1ccccc1Br` (centres undefined), the Activity (3T3-L1 [13]) was “inactive”.

In the case of `O=C1NC(=O)/C(=C/c2ccc(OCC(O)COC(=O)c3ccc(Cl)nc3)cc2)S1` (centres undefined), the Activity (3T3-L1 [13]) is reported as “inactive”.

In the case of `COc1ccc(C(=O)OCC(O)COc2ccc(/C=C3\SC(=O)NC3=O)cc2)c(OC)c1` (centres undefined), the Activity (3T3-L1 [13]) is reported as “inactive”.

In the case of `O=C1NC(=O)/C(=C/c2ccc(OCC(O)COC(=O)c3cccnc3)cc2)S1` (centres undefined), the Activity (3T3-L1 [13]) is reported as “inactive”.

With `O=C1S/C(=C\c2ccc(OCC(O)CNCc3cccnc3)cc2)C(=O)N1Cc1ccc(F)cc1` (centres undefined) the Activity (3T3-L1 [13]) was “inactive”.

For `CC(NCC(O)COc1ccc(/C=C2\SC(=O)N(Cc3ccccc3Br)C2=O)cc1)c1ccccc1` (centres undefined), the Activity (3T3-L1 [1]) was “Toxic”.

For `CC(NCC(O)COc1ccc(/C=C2\SC(=O)N(Cc3ccccc3)C2=O)cc1)c1ccccc1` (centres undefined), the Activity (3T3-L1 [1]) was “Toxic”.

`O=C(Cc1ccc(Cl)cc1)OCC(O)COc1ccc(/C=C2\SC(=O)NC2=O)cc1` (centres undefined) was tested, and the Activity (3T3-L1 [13]) was “inactive”.
